The text below walks through data of patent US20190226949A1, “IRIDIUM COMPLEXES FOR CELLULAR IMAGING” (UNIVERSITY OF SOUTH AUSTRALIA, priority 2016, published 2019).

“And” between values parts separate entries of the source, which are not always exact repeats. Equal entries are not always repeated.

Data set [1] in a line: Photophysical measurements (absorption, emission, lifetime, quantum yield) in diluted solutions. The note with it: for Emission λem / τaer, excited state lifetime (relative weight in parentheses) / τdeaer, excited state lifetime (relative weight in parentheses): 298K; for Φaer, quantum yield / Φdeaer, quantum yield: versus Ru(bpy)3^2+ in water (φr = 0.028); for τdeaer, excited state lifetime (relative weight in parentheses) / Φdeaer, quantum yield: deaerated; for knr: calculated as [(1 − φ)/τ] from deaerated solutions; for kr: calculated as [φ/τ] from deaerated solutions; for Φ, quantum yield: versus Ru(bpy)3^2+ in water. The data set is classed as physicochemical. An excerpt:
A summary of the photophysical data for the complexes as diluted solutions (10^−5 M) in dichloromethane, water, PBS, lysosomal fluid solution, and ethyl laurate is reported in Table 1. All the listed aqueous media also contain 0.1% DMSO to favour the solubilisation of the complexes. The various solvents have been chosen to identify potential modulations on the photophysical behaviour of the iridium complexes in diverse cellular environments such as cytoplasm, endosome/lysosomes acidic organelles, or lipid-rich compartments like membranes, endoplasmic reticulum, and lipid droplets. In general, the photophysical characteristics were measured in aerated solutions to take into account the presence of oxygen in live cells. On the other hand, dichloromethane solutions were compared as aerated and degassed to confirm oxygen sensitivity and triplet character of the excited states of the complexes.
Absorption spectra were recorded at room temperature using a Cary 4000 UV/Vis spectrometer. Uncorrected steady state emission and excitation spectra were recorded on an Edinburgh FLSP980-S2S2-stm spectrometer equipped with: i) a temperature-monitored cuvette holder; ii) 450 W Xenon arc lamp; iii) double excitation and emission monochromators; iv) a Peltier cooled Hamamatsu R928P photomultiplier tube (spectral range 200-870 nm). Emission and excitation spectra were corrected for source intensity (lamp and grating) and emission spectral response (detector and grating) by a calibration curve supplied with the instrument. According to the approach described by Demas and Crosby, luminescence quantum yields (Φem) were measured in optically dilute solutions (O.D.<0.1 at excitation wavelength) obtained from absorption spectra on a wavelength scale [nm] and compared to the reference emitter by the following equation: […]
where A is the absorbance at the excitation wavelength (λ), I is the intensity of the excitation light at the excitation wavelength (λ), n is the refractive index of the solvent, D is the integrated intensity of the luminescence and Φ is the quantum yield. The subscripts r and x refer to the reference and the sample, respectively. The quantum yield determinations were performed at identical excitation wavelength for the sample and the reference, therefore cancelling the I(λr)/I(λx) term in the equation. The quantum yields of complexes were measured against Rubipy in water (Φr=0.028). Emission lifetimes (z) were determined with the time correlated single photon counting technique (TCSPC) with the same Edinburgh FLSP980-S2S2-stm spectrometer using either a pulsed picosecond LED (EPLED/EPL 377 nm, FHWM<800 ps) or a microsecond flashlamp. The goodness of fit was assessed by minimising the reduced χ^2 function and by visual inspection of the weighted residuals. The solvents used for the preparation of the solutions for the photophysical investigations were of LR grade and the water was deionised. Degassing of the dichlorometane solutions was performed using the freeze-pump-thaw method. Experimental uncertainties are estimated to be ±8% for lifetime determinations, ±20% for quantum yields, ±2 nm and ±5 nm for absorption and emission peaks, respectively.

Data set [2] can be described thus: Lipophilicity by shake-flask method (7.4-buffered PBS / n-octanol). It counts as physicochemical. The note with it: pH 7.4; 7.4-buffered PBS solution and n-octanol; read-out: logD7.4, distribution coefficient. The procedure:
The lipophilicity of the iridium complexes was measured by the shake-flask method using 7.4-buffered PBS and n-octanol as solvents (Table 2). The values range between 1.49 and 2.68 are typical for cyclometalated iridium complexes that have not been bioconjugated. […] In general, neutral complexes have log D7.4 values above 2.00 and there is an increased in lipophilicity of extending the tetrazolato ligand with the addition of a phenyl spacer in [Ir(ppy)2(TzPyPhCN)], or by extending the conjugation on passing from pyridine to quinoline or isoquinoline for [Ir(ppy)2(TzQn)] and [Ir(ppy)2(TziQn)]. Methylation in all cases reduces lipophilicity to log D7.4 values […], with the same trend within the family of methylated complexes as previously observed for the neutral ones.

Data set [3] deals with H9c2 rat cardiomyoblast cells. Description: Staining and co-staining of live H9c2 cells, confocal and two-photon microscopy. The data set is classed as cell-based. The note with it: for cellular localisation (co-staining): live H9c2, 20 μM, 30 minutes; for emission profile from cells: live H9c2, one-photon or two-photon excitation. The procedure:
Live H9c2 rat cardiomyoblasts were incubated with the iridium complexes for 30 minutes. Complexes were made to a final concentration of 20 μM in the cell culture medium with DMSO concentration <0.2%. Under these conditions, the luminescence from the iridium complexes within the cells was detected via confocal microscopy under single-photon excitation (403 nm) or two-photon excitation (810-840 nm).
To determine the localisation of the iridium complexes, co-staining experiments were carried out with the use of ER-Tracker™ Red (endoplasmic reticulum), LysoTracker® Red DND-99 (acidic compartments), MitoTracker® Red (mitochondria), BODIPY® 500/510 C1, C12(fatty acid) or β-BODIPY® FL HPC (phospholipids). […] This difference was also in agreement with the trend of the quantum yield data illustrated before and detection of internalised complex by ICP-MS.
H9c2 rat cardiomyoblast cell line was a kind gift from Professor Janna Morrison (University of South Australia). The H9c2 cells were maintained in high-glucose (4500 mg/L) DMEM medium (Sigma-Aldrich, USA) containing 10% fetal bovine serum (FBS; In Vitro Technologies, USA) and 2 mM L-glutamine (Sigma-Aldrich, USA) at 37° C. and 5% CO2. The H9c2 cells were cultured in […] flasks, and cells (1×10^6 cells/mL) that had been passaged, from two up to five times were used for experiments. For live cell imaging and MTS assay, the H9c2 cells (1×10^5 cells/mL) were cultured overnight in either ibidi μ-Slide 8 wells in a final volume of 250 μL or 96-well microtiter plate in a final volume of 200 μL in absence of Ir-based molecular probes.
The H9c2 cells were incubated with 20 μM of Ir-based molecular probes for 30 minutes in FBS-free media (300 μL) at 37° C. and 5% CO2. These cells were washed twice with phosphate buffered saline (PBS) and once with FBS-free media, and then co-stained with either ER-Tracker™ Red (BODIPY® TR Glibenclamide), LysoTracker® Red DND-99, MitoTracker® Red CMXRos (1H,5H,11H,15H-Xantheno[2,3,4-ij:5,6,7-i′j′]diquinolizin-18-ium, 9-[4-(chloromethyl)phenyl]-2,3,6,7,12,13,16,17-octahydro-, chloride), β-BODIPY® FL C5-HPC (2-(4,4-Difluoro-5,7-Dimethyl-4-Bora-3a,4a-Diaza-s-Indacene-3-Pentanoyl)-1-Hexadecanoyl-sn-Glycero-3-Phosphocholine) or BODIPY® 500/510 C1, C12 (4,4-Difluoro-5-Methyl-4-Bora-3a,4a-Diaza-s-Indacene-3-Dodecanoic Acid), which were obtained from Life Technologies Australia Pty Ltd, Australia. Cell biology analysis was carried out with a minimum of two experimental groups. Imaging analysis was performed using a Nikon A1+ confocal microscope equipped with 403 nm, 488 nm, 561 nm and 640 nm solid-state lasers (Nikon, Japan) and OKOLab Microscope Incubator (Okolab USA Inc., USA). The final preparation of the images was conducted with Adobe Photoshop CC (Adobe Systems Inc., USA).
The H9c2 cells were incubated with 20 μM of Ir-based molecular probes for 30 minutes in FBS-free media (300 μL) at 37° C. and 5% CO2. These cells then were washed with phosphate buffered saline (PBS) and imaged using Zeiss LSM710 META NLO inverted microscope supplemented with a two-photon Mai-Tai®, tunable Ti:Sapphire femtosecond pulse laser (710-920 nm, Spectra-Physics). Fluorescence of Ir-based molecular probes was detected using the following settings: two-photon excitation wavelength 830 nm, beam splitter MBS 690+, emission interval 520-650 nm. The H9c2 cells were exposed to two-photon illumination between 810-840 nm. A continuum of lambda stack images was captured across the emission spectrum 416-728 nm. The images were acquired using a Plan-APOCHROMAT 63X/NA1.4 oil immersion objective. The final preparation of the images was conducted with Adobe Photoshop CC (Adobe Systems Inc., USA).

With `C[n+]1nc2[n](n1)[Ir]13([c]4cc(F)cc(F)c4-c4cccc[n+]41)([c]1cc(F)cc(F)c1-c1cccc[n+]13)[n+]1cc(C#N)ccc1-2` [[Ir(F2ppy)2(MeTzPyCN)]^+], in data set [1] (DCM, 10^−5 M), the “Absorption λabs [nm] (10^4ε [M^−1cm^−1])” value was 250 (3.56) nm (10^4ε [M^−1cm^−1]) and 316 (1.28) nm (10^4ε [M^−1cm^−1]) and 356 (0.58) nm (10^4ε [M^−1cm^−1]); the “Emission λem” value came out at 600 nm. Further, in data set [1] (DCM, aerated), the “τaer, excited state lifetime (relative weight in parentheses)” value (from here on “τaer … (relative weight in parentheses)”) was determined as 287 ns and the “Φaer, quantum yield” value came out at 0.057. For the same compound, in data set [1] (DCM), the “τdeaer, excited state lifetime (relative weight in parentheses)” value (“τdeaer … (relative weight in parentheses)” below) is 551 ns; the “Φdeaer, quantum yield” value is 0.188; the knr is given as 1.601 10^6s^−1; the kr is recorded as 2.142 10^5s^−1. The “Absorption λabs [nm] (10^4ε [M^−1cm^−1])” value in data set [1] (H2O with 0.1% DMSO, 10^−5 M) is 260 (4.12) nm (10^4ε [M^−1cm^−1]) and 309 (1.55) nm (10^4ε [M^−1cm^−1]) and 353 (0.66) nm (10^4ε [M^−1cm^−1]). For the same compound, in data set [1] (H2O with 0.1% DMSO, aerated), the “Emission λem” value is listed as 636 nm and the “Φ, quantum yield” value stood at 0.005. In addition, in data set [2], the logD stood at 1.86 ± 0.02. Moreover, in data set [3], the “cellular localisation (co-staining)” value was “staining pattern consistent with mitochondrial localisation”; the “emission profile from cells” value is “blue-shifted and almost superimposable bands between these cationic complexes and their neutral analogues”.

Regarding `C[n+]1nc2[n](n1)[Ir]13([c]4ccccc4-c4cccc[n+]41)([c]1ccccc1-c1cccc[n+]13)[n+]1cc(-c3ccc(C#N)cc3)ccc1-2` [[Ir(ppy)2(MeTzPyPhCN)]^+], in data set [1] (DCM, 10^−5 M), the “Absorption λabs [nm] (10^4ε [M^−1cm^−1])” value is 267 (3.39) nm (10^4ε [M^−1cm^−1]) and 290 (3.14) nm (10^4ε [M^−1cm^−1]) and 378 (0.40) nm (10^4ε [M^−1cm^−1]); the “Emission λem” value was 600 nm. Moreover, in data set [1] (DCM, aerated), the “τaer … (relative weight in parentheses)” value is recorded as 184 ns and the “Φaer, quantum yield” value is given as 0.057. In data set [1] (DCM), the “τdeaer … (relative weight in parentheses)” value is given as 434 ns; the “Φdeaer, quantum yield” value is 0.093; the knr is listed as 2.090 10^6s^−1; the kr is 2.143 10^5s^−1. In data set [1] (H2O with 0.1% DMSO, aerated), the “Emission λem” value was 605 nm and the “Φ, quantum yield” value is 0.005. For the same compound, the “red-shift of emission on passing from a PBS to a lysosomal fluid solution” value in data set [1] (PBS vs lysosomal fluid solution) was found to be 22 nm. The “red-shift of emission from ethyl laurate to dichloromethane” value in data set [1] (ethyl laurate vs dichloromethane) is “almost no shift is observed”. Besides, the logD in data set [2] was 1.87 ± 0.08. Besides, in data set [3], the “cellular localisation (co-staining)” value was “staining pattern consistent with mitochondrial localisation”; the “emission profile from cells” value is “blue-shifted and almost superimposable bands between these cationic complexes and their neutral analogues”.

Take `C[n+]1nc2[n](n1)[Ir]13([c]4ccccc4-c4cccc[n+]41)([c]1ccccc1-c1cccc[n+]13)[n+]1c-2ccc2ccccc21` [[Ir(ppy)2(MeTzQn)]^+]: in data set [1] (DCM, 10^−5 M), the “Emission λem” value amounted to 635 nm. Further, in data set [1] (DCM, aerated), the “τaer … (relative weight in parentheses)” value is 218 ns and the “Φaer, quantum yield” value came out at 0.028. In data set [1] (DCM), the “τdeaer … (relative weight in parentheses)” value was 546 ns; the “Φdeaer, quantum yield” value is 0.043; the knr is 1.753 10^6s^−1; the kr is 0.788 10^5s^−1. For the same compound, in data set [1] (H2O with 0.1% DMSO, 10^−5 M), the “Absorption λabs [nm] (10^4ε [M^−1cm^−1])” value is 251 (8.30) nm (10^4ε [M^−1cm^−1]) and 307 (2.52) nm (10^4ε [M^−1cm^−1]) and 364 (1.09) nm (10^4ε [M^−1cm^−1]). Besides, in data set [1] (H2O with 0.1% DMSO, aerated), the “Emission λem” value turned out to be 630 nm and the “Φ, quantum yield” value is reported as 0.004. Besides, the logD in data set [2] was 1.68 ± 0.05. For the same compound, in data set [3], the “cellular localisation (co-staining)” value is “preferential localisation in the endoplasmic reticulum and fatty acids and phospholipids”; the “emission profile from cells” value was “blue-shifted and almost superimposable bands between these cationic complexes and their neutral analogues”.
